Data published in patent publication US20230234906A1, “Use of 2-pentanone and specific receptor thereof in manufacture of products regulating cell functions” (Taihe Hospital, Hubei University of Medicine, priority 2022, published 2023).

Columns and labels:
[1] = Verification of the arrival of 2-pentanone in cerebrospinal fluid (HPLC-MS of blood and cerebrospinal fluid after inhalation); assay type: in vivo, rats
Description: The specific method for detecting the arrival of 2-pentanone in cerebrospinal fluid in this test example included the following: rats were given 2-pentanone for 3 min, then blood and cerebrospinal fluid were drawn, immediately sealed and centrifuged at high speed to pellet red blood cells. The obtained cerebrospinal fluid and blood samples were subjected to HPLC-MS detection. Prior to detection, 100 μL of samples was taken and added with 400 μL of acetonitrile. The protein was separated by vortex and centrifuged at 14000 rpm for 10 min, and 100 μL of supernatant was used for HPLC-MS detection. […] It was confirmed by high performance liquid chromatography-mass spectrometry (HPLC-MS) that 2-pentanone could reach cerebrospinal fluid through blood rapidly (3 min) after inhaled by animals, and the concentration in cerebrospinal fluid decreased rapidly within 3-5 min after the inhalation was stopped.

[2] = target: T1, specific receptor Or35a and the specific receptor Or83b (Drosophila melanogaster, UniProt Q9V3Q2+Q9VNB5); experiment: Calcium imaging experiment in mouse brain slices expressing the specific receptor of 2-pentanone; assay type: cell-based; conditions: addition of 2-pentanone; 150 μm brain slices of C57 mice injected with Or35a/Or83b overexpression virus and calcium imaging virus; confocal microscope; FIG. 4A
T1 construct: P2A peptide (self-cleaving; remnant stays on the C-terminus of Or35a) (C); remnant stays on the C-terminus of Or83b) (C); expressed in transfected cells; acute brain slices
T1 sequence (Q9V3Q2 1-409): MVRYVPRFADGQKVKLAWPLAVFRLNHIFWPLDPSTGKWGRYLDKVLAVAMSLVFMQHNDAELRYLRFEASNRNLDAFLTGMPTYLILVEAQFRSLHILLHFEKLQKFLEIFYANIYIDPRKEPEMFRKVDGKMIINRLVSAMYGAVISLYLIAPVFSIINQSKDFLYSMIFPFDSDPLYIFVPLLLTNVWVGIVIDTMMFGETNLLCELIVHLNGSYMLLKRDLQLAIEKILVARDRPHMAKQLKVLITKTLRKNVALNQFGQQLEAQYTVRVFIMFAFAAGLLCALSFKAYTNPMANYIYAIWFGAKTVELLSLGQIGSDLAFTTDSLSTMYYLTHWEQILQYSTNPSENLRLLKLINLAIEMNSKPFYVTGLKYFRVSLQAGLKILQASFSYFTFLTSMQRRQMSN
T1 sequence (Q9VNB5 1-486): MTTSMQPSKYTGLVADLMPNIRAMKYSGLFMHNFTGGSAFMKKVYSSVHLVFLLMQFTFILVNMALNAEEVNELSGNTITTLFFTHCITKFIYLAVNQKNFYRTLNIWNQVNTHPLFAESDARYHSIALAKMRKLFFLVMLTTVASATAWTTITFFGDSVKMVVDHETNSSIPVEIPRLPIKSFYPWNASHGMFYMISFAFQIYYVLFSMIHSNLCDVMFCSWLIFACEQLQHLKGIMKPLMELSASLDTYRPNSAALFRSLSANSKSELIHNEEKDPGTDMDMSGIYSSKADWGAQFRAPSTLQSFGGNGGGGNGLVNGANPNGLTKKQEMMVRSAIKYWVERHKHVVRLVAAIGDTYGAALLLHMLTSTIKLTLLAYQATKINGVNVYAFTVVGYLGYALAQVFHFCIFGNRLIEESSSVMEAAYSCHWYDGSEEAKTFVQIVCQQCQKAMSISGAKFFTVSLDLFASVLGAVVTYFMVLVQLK
Description: 1. Calcium imaging experiment: Adult C57 mice were anesthetized, fixed on a stereotaxic apparatus, and operated to expose the brain surface of the mice (1.5 mm behind the bregma, 1 mm aside, and injection depth of 2 mm). The overexpression virus (1 μl) constructed in Example 1 and the calcium imaging virus (0.5 μl) were simultaneously injected into the mouse brain using a microinjector. After 2 weeks of feeding, the brains of mice were removed. The brain tissues near the injection site were cut into 150 μm tissue slices using a vibrating microtome and placed in artificial cerebrospinal fluid with a mixture of 5% CO2 and 95% O2, and calcium imaging experiment was performed using a confocal microscope.

[3] = target: T1, specific receptor Or35a and the specific receptor Or83b; experiment: Patch clamp experiment (whole-cell recordings) in neurons of mouse brain slices expressing the specific receptor of 2-pentanone; assay type: cell-based; conditions: addition of 2-pentanone, 300 μm brain slices of C57 mice injected with Or35a/Or83b overexpression virus, FIG. 4B
Description: 2. Patch clamp experiment: Adult C57 mice were anesthetized, fixed on a stereotaxic apparatus, and operated to expose the brain surface of the mice (1.5 mm behind the bregma, 1 mm aside, and injection depth of 2 mm). The overexpression virus (1 μl) constructed in Example 1 was injected into the mouse brain using a microinjector. After 2 weeks of feeding, the brains of mice were removed. The brain tissues at and near the injection site were cut into 300 μm tissue slices using a vibrating microtome and placed in artificial cerebrospinal fluid with a mixture of 5% CO2 and 95% 02, and after 1 h of incubation, the patch clamp experiment was performed. Using an Axon 700B amplifier, under infrared visualization, neurons with smooth surfaces and clear contours were selected for sealing, and whole-cell recordings were performed.

## CCCC(C)=O [2-pentanone]
[1]; rats given 2-pentanone for 3 min by inhalation, HPLC-MS of cerebrospinal fluid
  time to reach cerebrospinal fluid through blood after inhalation: 3 min
[1]; rats, after inhalation was stopped, HPLC-MS
  time within which the concentration in cerebrospinal fluid decreased rapidly after the inhalation was stopped: 3 to 5 min
[2]
  intracellular calcium ion concentration: significantly increased
[3]
  neuronal firing rate: significantly increased
